Laboratory results: patent publication US8097422B2, “Kir channel modulators” (Salk Institute for Biological Studies, priority 2007, dated 2012)
Changes are numbered by the printed parent chain.

Experiments:
Format in all cases: cell-based
[1] = target: T1, IRK1 L245W mutant channel (Mus musculus, UniProt P35561, L245W); experiment: whole-cell patch clamp, IRK1 L245W mutant channel; conditions: equimolar 50 mM alcohol series
T1 construct: expressed in transfected cells; host or cells: HEK293 / HEK293T
T1 sequence (P35561 1-428 L245W): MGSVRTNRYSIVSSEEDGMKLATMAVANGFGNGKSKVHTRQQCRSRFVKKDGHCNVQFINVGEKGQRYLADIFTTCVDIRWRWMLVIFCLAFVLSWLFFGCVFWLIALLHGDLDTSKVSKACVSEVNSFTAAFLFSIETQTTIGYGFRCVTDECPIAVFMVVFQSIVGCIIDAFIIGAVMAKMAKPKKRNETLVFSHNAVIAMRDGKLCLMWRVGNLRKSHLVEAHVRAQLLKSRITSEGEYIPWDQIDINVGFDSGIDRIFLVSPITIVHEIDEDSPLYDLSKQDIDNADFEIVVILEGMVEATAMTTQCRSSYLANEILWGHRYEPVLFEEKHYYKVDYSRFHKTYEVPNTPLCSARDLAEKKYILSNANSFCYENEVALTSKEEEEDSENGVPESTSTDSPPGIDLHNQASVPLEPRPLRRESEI
Experimental: (§1) Point mutations were introduced by Quickchange site directed mutagenesis kit (Stratagene). The GIRK2 PIP mutant was generated by overlap-PCR method. […] Mutations were confirmed by automated DNA sequencing methods. […] Cells were plated in a 12 well dish, and were transiently transfected using Lipofectamine 2000 (Invitrogen). After 12-24 hrs, cells were re-plated to 12-mm glass coverslips coated with poly-D-[…] microgram/ml). […] The cells were co-transfected with 0.04 micrograms of eYFP cDNA to identify transfected cells. 0.8 micrograms of Muscarinic Receptor 2 (M2R) was also co-transfected for experiments with Carbachol. […] Whole-cell patch clamp recordings were performed 24-72 hrs after transfection. […] Alcohols, 5 μM Carbachol, and 1 mM BaCl2 (diluted in 20K solution) were applied from outside the cell with the rapid perfusion system (Warner Instruments). […] Current-voltage relationships also were obtained from the ramp protocol. This protocol was used to measure the inwardly rectifying currents at -100 mV and to ensure stability of recording by monitoring a reversal potential and inward rectification. […] Alcohol and Carbachol modulated currents were measured by averaging two consecutive current readings upon reaching steady state, and subtracting the averaged basal current before and after the application of modulator.

[2] = target: T2, GIRK4* Leu252 to Ala mutant channel (Rattus norvegicus, UniProt P48548, L252A/S143T); experiment: whole-cell patch clamp, GIRK4* L252A mutant channel; conditions: for percent activation of GIRK4* Leu252 to Ala mutant: n=8
T2 construct: expressed in transfected cells; host or cells: HEK293 / HEK293T
T2 sequence (P48548 1-419 S143T/L252A): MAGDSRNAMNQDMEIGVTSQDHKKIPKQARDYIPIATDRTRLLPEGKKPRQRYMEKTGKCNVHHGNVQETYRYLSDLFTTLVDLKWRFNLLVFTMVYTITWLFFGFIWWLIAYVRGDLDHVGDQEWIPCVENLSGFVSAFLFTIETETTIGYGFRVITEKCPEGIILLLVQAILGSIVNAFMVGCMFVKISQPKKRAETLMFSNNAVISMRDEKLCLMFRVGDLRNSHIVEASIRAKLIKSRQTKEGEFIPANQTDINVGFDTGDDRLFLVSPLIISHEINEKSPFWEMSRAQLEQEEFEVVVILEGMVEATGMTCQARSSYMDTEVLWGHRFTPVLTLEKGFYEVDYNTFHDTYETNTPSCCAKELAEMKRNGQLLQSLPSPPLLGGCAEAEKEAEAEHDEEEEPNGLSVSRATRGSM
Experimental: as §1

[3] = target: T3, GIRK2 PIP S148T mutant channel (Mus musculus, UniProt P48542, D228N/I234L/M344L/N231K/S148T); experiment: whole-cell patch clamp, GIRK2 PIP S148T mutant channel; conditions: 50 mM alcohols
T3 construct: expressed in transfected cells; host or cells: HEK293 / HEK293T
T3 sequence (P48542 1-425 S148T/D228N/N231K/I234L/M344L): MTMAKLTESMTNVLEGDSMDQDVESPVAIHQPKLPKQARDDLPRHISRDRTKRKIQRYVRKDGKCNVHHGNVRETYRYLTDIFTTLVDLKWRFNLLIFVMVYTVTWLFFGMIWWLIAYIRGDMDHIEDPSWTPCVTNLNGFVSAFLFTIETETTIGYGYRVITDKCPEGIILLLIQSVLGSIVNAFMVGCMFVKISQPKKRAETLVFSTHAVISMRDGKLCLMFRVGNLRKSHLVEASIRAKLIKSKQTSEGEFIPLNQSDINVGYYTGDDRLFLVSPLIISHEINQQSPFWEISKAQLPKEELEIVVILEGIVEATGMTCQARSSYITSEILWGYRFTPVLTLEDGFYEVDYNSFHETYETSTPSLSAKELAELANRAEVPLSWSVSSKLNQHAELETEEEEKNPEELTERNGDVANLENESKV
Experimental: as §1

GIRK4 = target: T4, GIRK4 (Rattus norvegicus, UniProt P48548); experiment: whole-cell patch clamp, GIRK4 homo-tetramers; conditions: n=7
T4 construct: expressed in transfected cells; host or cells: HEK293 / HEK293T
T4 sequence (P48548 1-419): T2 sequence (P48548 1-419 S143T/L252A) with T143S, A252L
Experimental: as §1

[4] = target: T5, GIRK2 L257W mutant channel (Mus musculus, UniProt P48542, L257W); experiment: whole-cell patch clamp, GIRK2 L257W mutant channel; conditions: n=9; for modulation of GIRK2 L257W, percentage change from basal current (negative = inhibition): alcohols as for wild type (100 mM)
T5 construct: expressed in transfected cells; host or cells: HEK293T
T5 sequence (P48542 1-425 L257W): T3 sequence (P48542 1-425 S148T/D228N/N231K/I234L/M344L) with T148S, N228D, K231N, L234I, L257W, L344M
Experimental: as §1

Molecule	inhibition of IRK1 L245W mutant channel, percentage inhibition [1] [%]	percent activation of GIRK4* Leu252 to Ala mutant [2] [%]	inhibition of GIRK2 PIP S148T, percentage inhibition [3] [%]	modulation of GIRK4 currents, mean percentage change from basal (negative = inhibition) (GIRK4) [%]	modulation of GIRK2 L257W, percentage change from basal current (negative = inhibition) [4] [%]	Carb (G-protein mediated) activation, GIRK4* L252 Ala ([2]; 5 μM Carbachol) [%]	G-protein mediated activation, GIRK2 L257W, percentage change from basal current ([4]; 5 μM Carbachol, M2R co-transfected) [%]
1-propanol [1-PrOH]	−8±1	86±8	−15±1	43±7	57±6	–	–
CCO [EtOH, ethanol]	−3±1	–	−4±1	43±6	34±3	–	–
C[N+](C)(C)CCOC(N)=O [Carbachol]	–	–	–	–	–	51±8	12±2
1-butanol [1-BuOH]	−20±2	–	−28±1	−70±3	–	–	–
CC(O)CC(C)(C)O (racemic) [MPD, 2-methyl-2,4-pentanediol]	−27±2	179±22	−36±1	55±8	−97±4	–	–
